Source: publication PMC2802056 (The Journal of neuroscience : the official journal of the …, 2009)

Key:
[1] = test system: proton-gated currents in cortical neurons; type: cell-based, mouse; settings: conditioning pH 7.2
[2] = test system: ASIC1a; settings: cited from earlier work; for effect on steady-state desensitization of mouse ASIC1a: ref Sherwood and Askwith, 2008
[3] = test system: ASIC1a:F352L; test: Steady-state desensitization of mutant ASIC1a:F352L; type: cell-based, mouse; settings: peptide alone; conditioning pH 6.65; n = 3
[4] = target: T1, mouse ASIC1a (Mus musculus, UniProt Q6NXK8); test: Competition of Big Dynorphin with PcTx1 for ASIC1a modulation, Xenopus oocytes; type: cell-based; settings: conditioning pH 7.2; PcTx1 0.2 µM or Big Dynorphin 1 µM alone
T1 sequence (Q6NXK8 1-526): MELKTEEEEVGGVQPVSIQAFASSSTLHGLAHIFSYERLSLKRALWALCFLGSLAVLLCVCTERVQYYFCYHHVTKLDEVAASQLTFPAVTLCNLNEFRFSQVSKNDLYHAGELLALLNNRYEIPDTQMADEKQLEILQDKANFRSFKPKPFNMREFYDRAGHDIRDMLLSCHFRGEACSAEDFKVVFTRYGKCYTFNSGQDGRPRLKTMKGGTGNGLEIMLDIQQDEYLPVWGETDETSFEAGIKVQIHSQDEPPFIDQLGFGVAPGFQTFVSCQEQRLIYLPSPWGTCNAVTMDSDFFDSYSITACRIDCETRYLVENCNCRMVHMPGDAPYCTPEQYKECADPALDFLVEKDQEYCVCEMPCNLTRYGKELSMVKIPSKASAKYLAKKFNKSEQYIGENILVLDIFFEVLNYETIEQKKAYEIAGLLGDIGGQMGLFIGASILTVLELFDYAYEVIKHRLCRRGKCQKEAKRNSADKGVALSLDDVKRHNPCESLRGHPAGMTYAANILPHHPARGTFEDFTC

In the case of C=CCN1CC[C@]23c4c5ccc(O)c4O[C@H]2C(=O)CC[C@@]3(O)[C@H]1C5 [Naloxone], the “effect of antagonist alone on proton-gated current” value [1] was “neither of which had any affect on proton-gated currents alone”.
In the case of FMRFamide, the “competition with PcTx1” value ([2]; ref Salinas et al., 2006) is listed as “does not compete with PcTx1” and the “effect on steady-state desensitization of mouse ASIC1a” value [2] is listed as “but not FMRFamide, prevented steady-state desensitization of mouse ASIC1a”.
For FRRFamide, the “effect on steady-state desensitization of mouse ASIC1a” value [2] is listed as “prevented steady-state desensitization of mouse ASIC1a”.
For PcTx1, the “effect on steady-state desensitization of ASIC1a:F352L” value [3] is listed as “PcTx1 alone had no effect”, the “effect on ASIC1a steady-state desensitization” value ([2]; ref Escoubas et al., 2000, Chen et al., 2006a, Salinas et al., 2006) is listed as “specifically binds the extracellular domain of ASIC1 to enhance the proton-sensitivity of steady-state desensitization” and the “effect on ASIC1a steady-state desensitization, peptide alone” value [4] is listed as “steady-state desensitization induced by pH 7.2 was enhanced and acid-evoked current was reduced”.
